For assay [1], the system named is Jurkat cells. The assay is described as follows: Genomic DNA fragmentation by agarose gel electrophoresis and trace intensity. The settings on record: 5 hours. In kind it is cell-based, human. As to the method: Jurkat cells were grown to log phase in RF-10 tissue culture medium, pelleted and resuspended to 10^6 cells/ ml in new RF-10 at 37° C., and incubated at 37° C. with or without staurosporine (at 4 or 8 μM) for 5 and 6 hours. At the end-points, genomic DNA was purified using Qiagen DNA mini-prep columns following the manufacturer's recommendations, including RNase treatment and stored at −80° C. These columns quantitatively purify nucleic acid in the target size range of 200 by to 50 kbp. Nucleic acid for each end-point was compared by agarose gel electrophoresis. The generation of 100% apoptotic nucleic acid was defined as the complete absence of any typically high molecular weight genomic nucleic acid and complete conversion of this length of nucleic acid into apoptotic fragments, as determined by trace intensity using a GelDoc Imager (BioRad). […] The same experiment from cell culture to nucleic acid purification was repeated to test reproducibility. Nucleic acid from both experiments was electrophoresed together and trace intensities compared (FIG. 2C).

In assay [2] the test system is Jurkat cells. The assay is described as follows: Apoptosis measured by TUNEL with flow cytometry. In kind it is cell-based, human. On the procedure:
To verify the definition of 100% apoptotic DNA, apoptosis was measured by TUNEL with flow cytometry from fractions of the same cultured cells used for genomic nucleic acid purification (above). At each time point and each staurosporine concentration, cells (6 ml) were collected, washed twice with PBS and resuspended in PBS to 2×10^7 cells/ml for duplicate 100 μl cells per micro-well. TUNEL procedure for cell suspensions followed the In Situ Cell Death Detection Kit, Flourescein (Roche, Mannheim, Germany) with the following modifications: after pelleting cells in wells, supernatant was aspirated and cells gently resuspended in 100 μl/well of fixation/permeabilisation solution (Cytofix/Cytoperm kit, BD Biosciences/Pharmingen, CA, USA). After incubation for 20 minutes at 4° C., cells were washed at this and subsequent wash stages 2 times at room temperature with perm/wash buffer (Cytofix/Cytoperm kit). After final washes, cells were resuspended in 250 μl/well 1% paraformaldehyde in PBS, stored at 4° C. in the dark for up to 12 hours and analyzed by flow cytometry at excitation 488 nm, detection 530 nm using a BD FACScan (BD Biosciences). At each measurement at least 10,000 events were sorted. Mean TUNEL positivity for cells incubated for 5 hours without staurosporine was 3%, while positivity for cells incubated for 5 hours with 8 μM staurosporine was 98.5% (FIG. 3).

SMILES strings stand for the structures. “Also recorded” adds a separate entry of the source.

Consider `CN[C@@H]1C[C@H]2O[C@@](C)([C@@H]1OC)n1c3ccccc3c3c4c(c5c6ccccc6n2c5c31)C(=O)NC4` [staurosporine], for which the “unfragmented high molecular weight genomic nucleic acid remaining, by trace quantification” value in assay [1] (4 μM staurosporine, 37° C.) came to 1.8%. In assay [1] (8 μM staurosporine, 37° C. (optimal conditions)), the “DNA fragmentation as determined by trace analysis” value is on record as “all DNA was fragmented; also recorded: unfragmented nucleic acid was not detected”. Moreover, the “Mean TUNEL positivity” value in assay [2] (8 μM staurosporine, 5 hours) turned out to be 98.5%. Further, in assay [2] (optimal test conditions), the “apoptotic cells by TUNEL with flow cytometry (FACS)” value came to 99%.
